Data: patent US20240327381A1, “Compounds and Compositions for Selective Degradation of Engineered Proteins” (Celgene Corporation, priority 2023, published 2024)

Experiments:
[1] = target: T1, IKZF1 ZNF2_ZNF3 Q1F degron-tagged CD19 CAR (Homo sapiens, UniProt Q13422, Q146F); test: Degradation of Q1F degron-tagged CD19 CAR in Jurkat cells (flow cytometry of CAR levels); type: cell-based; conditions: for DC50: Jurkat cells expressing CD19 CAR tagged with IKZF1 ZNF2_ZNF3 Q1F, 18 hours at 37° C., CAR levels normalized to untreated cells, read-out: Q1F Jurkat IC50; for Dmax: Ymax is the % protein degraded, Jurkat cells expressing Q1F degron-tagged CD19 CAR, 18 hours, read-out: Q1F Jurkat-YMax
T1 construct: ZNF2_ZNF3 Q1F degron (GERPFFCNQCGASFTQKGNLLRHIKLHSGEKPFKCHLCNYACRRRDALTGHLRTHS); fused on or other part: anti-CD19 scFv, CD28 transmembrane domain, 4-1BB costimulatory domain, CD3 zeta signaling domain (the CAR that carries the degron), and Nluc
Source text: Q1F degron-targeting compounds were screened in Jurkat cells engineered to express a IKZF1 ZNF2_ZNF3 Q1F. The cell line was generated with lentiviral vectors containing CD19 CARs tagged with IKZF1 ZNF2_ZNF3 QIF Nluc, which were transduced into Jurkat cells. The CD19 CAR comprised an anti-CD19 scFv, a CD28 transmembrane domain, a 4-1BB costimulatory domain, a CD3ζ signaling domain, and a ZNF2_ZNF3 Q1F degron (GERPFFCNQCGASFTQKGNLLRHIKLHSGEKPFKCHLCNYACRRRDALTGHLRTHS; SEQ ID NO: 1; Q1F substitution underlined). Transduced cells were treated with a titration of each small molecule or no drug and then incubated at 37° C. for 18 hours. Cells were washed and stained with appropriate staining reagent to measure CAR levels. The cells were incubated at 4° C. in the staining reagents for 20 mins and then washed 3 times before being read on the flow cytometer. CAR levels were normalized to cells that had not been treated with drug. EC50 and Ymin values were calculated using the resulting titration curve. This identified small molecules that potently degraded the Q1F degron-tagged CARs (Table 1).
(§1) To determine the EC50 value of a compound for the degradation of a given substrate (concentration of compound that achieves half the maximum degradation observed), a four-parameter logistic model (sigmoidal dose-response model) (FIT=(A+{(B−A)/1+[(C/x)D]})) where C is the inflection point (EC50), D is the […], and A and B are the low and high limits of the fit, respectively) was used. All substrate degradation curves were processed and evaluated using ActivityBase (IDBS), a data analysis software package. Ymax is the % protein degraded (Ymin=100−Ymax and is minimum percent protein remaining).

Helios = target: T2, Helios (Homo sapiens, UniProt Q9UKS7); test: Helios degradation in Jurkat/Helios/HiBit cells (Nano-Glo luminescence); type: cell-based; conditions: 18 hr, read-out: Helios Jurkat Hibit IC50
T2 construct: endogenous in cells; host or cells: Jurkat cells, CRISPR/Cas9 knock-in of HiBit at the IKZF2 locus
Method: For Helios, a stable Jurkat cell line was engineered using CRISPR/Cas9 to insert an in-frame HiBit tag into the carboxy-terminal reading frame of the IKZF2 gene. The sequence of human Helios is shown below:
Test compounds were transferred to 1536 well plates using an acoustic dispenser, and Jurkat/Helios/HiBit cells in DMEM/10% FCS were plated at 10,000 cells/well in a final volume of 5 μL. Cells were incubated at 37 C, 95% RH for 18 hr. Luciferase activity was measured by adding 2 μL/well of Nano-Glo reagent (Promega), incubating at RT for 30 min, and reading luminescence on a microtiter plate reader.
as §1

T1 sequence (Q13422 whole entry Q146F, the tested form may be a part): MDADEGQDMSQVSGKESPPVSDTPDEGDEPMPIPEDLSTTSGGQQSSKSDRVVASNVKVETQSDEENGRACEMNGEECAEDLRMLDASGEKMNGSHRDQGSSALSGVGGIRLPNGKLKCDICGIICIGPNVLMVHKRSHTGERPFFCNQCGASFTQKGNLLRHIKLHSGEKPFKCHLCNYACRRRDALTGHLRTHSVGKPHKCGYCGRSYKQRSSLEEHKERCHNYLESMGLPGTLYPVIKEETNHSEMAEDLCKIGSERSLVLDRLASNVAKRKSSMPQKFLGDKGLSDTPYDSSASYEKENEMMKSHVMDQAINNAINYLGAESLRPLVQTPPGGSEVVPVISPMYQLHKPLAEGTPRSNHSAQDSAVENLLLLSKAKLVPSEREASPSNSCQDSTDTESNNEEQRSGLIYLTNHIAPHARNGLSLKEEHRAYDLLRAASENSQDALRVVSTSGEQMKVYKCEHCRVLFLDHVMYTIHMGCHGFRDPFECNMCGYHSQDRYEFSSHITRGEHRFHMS
T2 sequence (Q9UKS7 whole entry): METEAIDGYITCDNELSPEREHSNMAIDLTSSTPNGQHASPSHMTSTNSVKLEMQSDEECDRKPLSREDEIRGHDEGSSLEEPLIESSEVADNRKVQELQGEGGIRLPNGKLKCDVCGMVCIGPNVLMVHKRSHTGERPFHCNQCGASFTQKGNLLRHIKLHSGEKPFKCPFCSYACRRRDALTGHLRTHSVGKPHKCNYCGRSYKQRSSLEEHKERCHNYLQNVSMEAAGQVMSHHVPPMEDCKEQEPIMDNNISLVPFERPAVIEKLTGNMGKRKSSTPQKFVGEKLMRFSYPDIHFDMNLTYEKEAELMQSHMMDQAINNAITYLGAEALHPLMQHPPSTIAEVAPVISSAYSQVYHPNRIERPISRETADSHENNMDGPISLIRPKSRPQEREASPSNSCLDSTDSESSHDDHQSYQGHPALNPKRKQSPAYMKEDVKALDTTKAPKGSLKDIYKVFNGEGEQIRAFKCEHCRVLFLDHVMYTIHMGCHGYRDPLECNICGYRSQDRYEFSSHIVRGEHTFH
T2 sequence (Q96SW2 whole entry, further chain): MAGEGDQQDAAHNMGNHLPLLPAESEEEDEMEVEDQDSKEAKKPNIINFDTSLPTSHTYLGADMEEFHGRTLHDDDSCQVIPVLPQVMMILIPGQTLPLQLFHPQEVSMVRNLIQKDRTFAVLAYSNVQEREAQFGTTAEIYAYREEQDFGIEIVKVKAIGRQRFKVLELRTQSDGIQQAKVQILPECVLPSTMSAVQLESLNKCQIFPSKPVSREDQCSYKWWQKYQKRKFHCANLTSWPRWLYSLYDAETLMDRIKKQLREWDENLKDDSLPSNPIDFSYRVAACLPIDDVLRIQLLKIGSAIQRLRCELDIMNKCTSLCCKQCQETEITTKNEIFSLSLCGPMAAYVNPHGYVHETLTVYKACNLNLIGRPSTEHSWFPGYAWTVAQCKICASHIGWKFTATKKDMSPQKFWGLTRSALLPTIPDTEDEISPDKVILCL
T2 sequence (Q16531 whole entry partner): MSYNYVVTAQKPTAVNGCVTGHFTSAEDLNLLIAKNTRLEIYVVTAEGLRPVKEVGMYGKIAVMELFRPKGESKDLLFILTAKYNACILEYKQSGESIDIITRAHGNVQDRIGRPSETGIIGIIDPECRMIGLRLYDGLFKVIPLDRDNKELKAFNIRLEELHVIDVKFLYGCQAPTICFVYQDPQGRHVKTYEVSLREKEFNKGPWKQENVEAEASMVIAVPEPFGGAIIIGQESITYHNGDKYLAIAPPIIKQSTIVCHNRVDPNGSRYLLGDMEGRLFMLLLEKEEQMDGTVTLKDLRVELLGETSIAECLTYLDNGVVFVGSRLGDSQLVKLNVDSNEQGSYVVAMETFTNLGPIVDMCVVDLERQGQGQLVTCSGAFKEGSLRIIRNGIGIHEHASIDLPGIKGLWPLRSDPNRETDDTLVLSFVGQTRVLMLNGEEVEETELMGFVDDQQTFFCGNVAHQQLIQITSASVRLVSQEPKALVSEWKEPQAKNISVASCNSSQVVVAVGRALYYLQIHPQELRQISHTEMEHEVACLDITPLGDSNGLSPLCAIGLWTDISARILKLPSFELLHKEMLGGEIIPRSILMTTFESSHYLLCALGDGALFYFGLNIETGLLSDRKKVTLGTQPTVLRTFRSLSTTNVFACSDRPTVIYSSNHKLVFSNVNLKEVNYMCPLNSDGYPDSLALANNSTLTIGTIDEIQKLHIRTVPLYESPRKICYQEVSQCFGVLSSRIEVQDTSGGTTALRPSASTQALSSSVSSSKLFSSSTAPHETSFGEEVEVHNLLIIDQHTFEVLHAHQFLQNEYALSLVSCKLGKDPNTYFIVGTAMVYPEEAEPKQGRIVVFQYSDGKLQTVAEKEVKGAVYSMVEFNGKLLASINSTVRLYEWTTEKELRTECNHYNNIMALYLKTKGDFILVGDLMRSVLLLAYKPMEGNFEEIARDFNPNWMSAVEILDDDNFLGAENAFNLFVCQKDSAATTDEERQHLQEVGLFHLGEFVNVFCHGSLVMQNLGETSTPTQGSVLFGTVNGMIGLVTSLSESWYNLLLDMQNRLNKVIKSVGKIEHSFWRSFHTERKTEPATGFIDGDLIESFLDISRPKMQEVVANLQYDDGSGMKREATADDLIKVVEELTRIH

| DC50 [1] | Dmax [1] | DC50 (Helios) | SMILES |
| --- | --- | --- | --- |
| 0.343 nM | 90.6% | ≥ 10 µM | Cc1ccc(CN2CCC(c3c(F)cc4c(c3F)CN(C3CCC(=O)NC3=O)C4=O)CC2)cc1 (stereo not drawn) [Compound 45, 3-(4,6-difluoro-5-(1-(4-methylbenzyl)piperidin-4-yl)-1-oxoisoindolin-2-yl)piperidine-2,6-dione] |
| 0.108 nM | 91% | ≥ 10 µM | O=C1CCC(N2Cc3c(cc(F)c(C4CCN(Cc5cccc(-n6cccn6)c5)CC4)c3F)C2=O)C(=O)N1 (stereo not drawn) [Compound 49, 3-(5-(1-(3-(1H-pyrazol-1-yl)benzyl)piperidin-4-yl)-4,6-difluoro-1-oxoisoindolin-2-yl)piperidine-2,6-dione] |
| 1.36 nM | 88.4% | ≥ 10 µM | O=C1CCC(N2Cc3c(cc(F)c(C4CCN(Cc5ncccc5Br)CC4)c3F)C2=O)C(=O)N1 (stereo not drawn) [Compound 50, 3-(5-(1-((3-bromopyridin-2-yl)methyl)piperidin-4-yl)-4,6-difluoro-1-oxoisoindolin-2-yl)piperidine-2,6-dione] |
| 0.097 nM | 92% | ≥ 10 µM | O=C1CCC(N2Cc3c(cc(F)c(C4CCN(Cc5ccc(C(F)F)cc5)CC4)c3F)C2=O)C(=O)N1 (stereo not drawn) [Compound 51, 3-(5-(1-(4-(difluoromethyl)benzyl)piperidin-4-yl)-4,6-difluoro-1-oxoisoindolin-2-yl)piperidine-2,6-dione] |
| 0.91 nM | 91.8% | ≥ 10 µM | O=C1CCC(N2Cc3c(cc(F)c(C4CCN(Cc5ccc(C(F)(F)F)cc5)CC4)c3F)C2=O)C(=O)N1 (stereo not drawn) [Compound 52, 3-(4,6-difluoro-1-oxo-5-(1-(4-(trifluoromethyl)benzyl)piperidin-4-yl)isoindolin-2-yl)piperidine-2,6-dione] |
| 0.727 nM | 93.3% | ≥ 10 µM | O=C1CCC(N2Cc3c(cc(F)c(C4CCN(Cc5ccc6ccccc6n5)CC4)c3F)C2=O)C(=O)N1 (stereo not drawn) [Compound 53, 3-(4,6-difluoro-1-oxo-5-(1-(quinolin-2-ylmethyl)piperidin-4-yl)isoindolin-2-yl)piperidine-2,6-dione] |
| 0.114 nM | 93.3% | ≥ 10 µM | O=C1CCC(N2Cc3c(cc(F)c(C4CCN(Cc5ccc6scnc6c5)CC4)c3F)C2=O)C(=O)N1 (stereo not drawn) [Compound 54, 3-(5-(1-(benzo[d]thiazol-5-ylmethyl)piperidin-4-yl)-4,6-difluoro-1-oxoisoindolin-2-yl)piperidine-2,6-dione] |
| 10.7 nM | 86.3% | ≥ 10 µM | O=C1CCC(N2Cc3c(cc(F)c(C4CCN(Cc5nc6ccccc6s5)CC4)c3F)C2=O)C(=O)N1 (stereo not drawn) [Compound 58, 3-(5-(1-(benzo[d]thiazol-2-ylmethyl)piperidin-4-yl)-4,6-difluoro-1-oxoisoindolin-2-yl)piperidine-2,6-dione] |
| 0.691 nM | 91.8% | ≥ 10 µM | O=C1CCC(N2Cc3c(cc(F)c(C4CCN(Cc5ccc6c(c5)CCC6)CC4)c3F)C2=O)C(=O)N1 (stereo not drawn) [Compound 60, 3-(5-(1-((2,3-dihydro-1H-inden-5-yl)methyl)piperidin-4-yl)-4,6-difluoro-1-oxoisoindolin-2-yl)piperidine-2,6-dione] |
| 0.168 nM | 92.6% | ≥ 10 µM | CS(=O)(=O)c1ccc(CN2CCC(c3c(F)cc4c(c3F)CN(C3CCC(=O)NC3=O)C4=O)CC2)cc1 (stereo not drawn) [Compound 62, 3-(4,6-difluoro-5-(1-(4-(methylsulfonyl)benzyl)piperidin-4-yl)-1-oxoisoindolin-2-yl)piperidine-2,6-dione] |
| 2.11 nM | 92.9% | ≥ 10 µM | O=C1CCC(N2Cc3c(cc(F)c(C4CCN(Cc5cccc6ncsc56)CC4)c3F)C2=O)C(=O)N1 (stereo not drawn) [Compound 64, 3-(5-(1-(benzo[d]thiazol-7-ylmethyl)piperidin-4-yl)-4,6-difluoro-1-oxoisoindolin-2-yl)piperidine-2,6-dione] |
| 1.09 nM | 85.5% | ≥ 10 µM | CN(CCN1CCC(c2c(F)cc3c(c2F)CN(C2CCC(=O)NC2=O)C3=O)CC1)Cc1ccccc1 (stereo not drawn) [Compound 65, 3-(5-(1-(2-(benzyl(methyl)amino)ethyl)piperidin-4-yl)-4,6-difluoro-1-oxoisoindolin-2-yl)piperidine-2,6-dione] |

Second part, the compound before the results:

| SMILES | DC50 [1] | Dmax [1] | DC50 (Helios) |
| --- | --- | --- | --- |
| O=C1CCC(N2Cc3c(cc(F)c(C4(O)CCN(Cc5ccc6nc[nH]c6c5)CC4)c3F)C2=O)C(=O)N1 (stereo not drawn) [Compound 44, 3-[5-[1-(3H-benzimidazol-5-ylmethyl)-4-hydroxy-4-piperidyl]-4,6-difluoro-1-oxo-isoindolin-2-yl]piperidine-2,6-dione] | 120 nM | 82.1% | ≥ 10 µM |
| O=C1CCC(N2Cc3c(cc(F)c(C4CCN(Cc5cc(F)ccc5-n5cccn5)CC4)c3F)C2=O)C(=O)N1 (stereo not drawn) [Compound 47, 3-(4,6-difluoro-5-(1-(5-fluoro-2-(1H-pyrazol-1-yl)benzyl)piperidin-4-yl)-1-oxoisoindolin-2-yl)piperidine-2,6-dione] | 2.5 nM | 88.8% | ≥ 10 µM |
| Cc1cc(Br)cnc1CN1CCC(c2c(F)cc3c(c2F)CN(C2CCC(=O)NC2=O)C3=O)CC1 (stereo not drawn) [Compound 48, 3-(5-(1-((5-bromo-3-methylpyridin-2-yl)methyl)piperidin-4-yl)-4,6-difluoro-1-oxoisoindolin-2-yl)piperidine-2,6-dione] | 2.24 nM | 87.8% | ≥ 10 µM |
| O=C1CCC(N2Cc3c(cc(F)c(C4CCN(Cc5ccc(C(F)(F)F)cc5O)CC4)c3F)C2=O)C(=O)N1 (stereo not drawn) [Compound 55, 3-(4,6-difluoro-5-(1-(2-hydroxy-4-(trifluoromethyl)benzyl)piperidin-4-yl)-1-oxoisoindolin-2-yl)piperidine-2,6-dione] | 0.468 nM | 88.7% | ≥ 10 µM |
| Cc1nc(CN2CCC(c3c(F)cc4c(c3F)CN(C3CCC(=O)NC3=O)C4=O)CC2)c(C)o1 (stereo not drawn) [Compound 56, 3-(5-(1-((2,5-dimethyloxazol-4-yl)methyl)piperidin-4-yl)-4,6-difluoro-1-oxoisoindolin-2-yl)piperidine-2,6-dione] | 0.571 nM | 84.4% | ≥ 10 µM |
| O=C1CCC(N2Cc3c(cc(F)c(C4(O)CCN(Cc5nc6ccccc6s5)CC4)c3F)C2=O)C(=O)N1 (stereo not drawn) [Compound 57, 3-(5-(1-(benzo[d]thiazol-2-ylmethyl)-4-hydroxypiperidin-4-yl)-4,6-difluoro-1-oxoisoindolin-2-yl)piperidine-2,6-dione] | 101 nM | 63.2% | ≥ 10 µM |
| O=C1CCC(N2Cc3c(cc(F)c(C4CCN(Cc5ccc6c(c5)OC(F)(F)O6)CC4)c3F)C2=O)C(=O)N1 (stereo not drawn) [Compound 59, 3-(5-(1-((2,2-difluorobenzo[d][1,3]dioxol-5-yl)methyl)piperidin-4-yl)-4,6-difluoro-1-oxoisoindolin-2-yl)piperidine-2,6-dione] | 0.01 nM | 92.2% | ≥ 10 µM |
| Cc1cc(Br)cnc1C(=O)N1CCC(c2c(F)cc3c(c2F)CN(C2CCC(=O)NC2=O)C3=O)CC1 (stereo not drawn) [Compound 66, 3-(5-(1-(5-bromo-3-methylpicolinoyl)piperidin-4-yl)-4,6-difluoro-1-oxoisoindolin-2-yl) piperidine-2,6-dione] | 46.1 nM | 74.9% | ≥ 10 µM |
